In patent publication US20220071989A1, “METHODS OF TREATING NEGATIVE SYMPTOMS OF SCHIZOPHRENIA USING DEUTERATED DEXTROMETHORPHAN AND QUINIDINE” (AVANIR PHARMACEUTICALS, INC., priority 2019, published 2022):
Where a name gives a salt, the structure may show the parent alone.

Tests used:
[1] = Plasma concentrations of d6-DM, d3-DX, d3-3-MM and Q (Example 1); details: 2 to 3 hours after morning dose
Description: Plasma samples were separated by centrifugation and then frozen at −20° C. until assayed at the analytical unit.

[2] = tested on: negative symptoms of schizophrenia; details: Lee et al. 2015, cited from earlier work
[3] = PK parameters (Cmax, AUC) estimated from measured drug concentrations with a PK model (Example 1); assay type: in vivo, human
[4] = d6-DM/Q/d6-DM/Q group at Visit 4 (Week 6)
[5] = d6-DM/Q/d6-DM/Q group at Visit 7 (Week 12)
[6] = placebo/d6-DM/Q group at Visit 7 (Week 12)
[7] = subgroup of 13 patients with ALDH2*2 allele
[8] = Visit 4 (Week 6), d6-DM/Q/d6-DM/Q, All metabolizer types
[9] = Visit 4 (Week 6), d6-DM/Q/d6-DM/Q, Extensive metabolizer subgroup
[10] = Visit 4 (Week 6), d6-DM/Q/d6-DM/Q, Intermediate metabolizer subgroup
[11] = Visit 4 (Week 6), d6-DM/Q/d6-DM/Q, Poor metabolizer subgroup
[12] = Visit 4 (Week 6), d6-DM/Q/d6-DM/Q, Ultra-Rapid metabolizer subgroup
[13] = Visit 7 (Week 12), d6-DM/Q/d6-DM/Q, All metabolizer types
[14] = Visit 7 (Week 12), d6-DM/Q/d6-DM/Q, Extensive metabolizer subgroup
[15] = Visit 7 (Week 12), d6-DM/Q/d6-DM/Q, Intermediate metabolizer subgroup
[16] = Visit 7 (Week 12), d6-DM/Q/d6-DM/Q, Ultra-Rapid metabolizer subgroup
[17] = Visit 7 (Week 12), placebo/d6-DM/Q, All metabolizer types
[18] = Visit 7 (Week 12), placebo/d6-DM/Q, Extensive metabolizer subgroup
[19] = Visit 7 (Week 12), placebo/d6-DM/Q, Intermediate metabolizer subgroup
[20] = Visit 7 (Week 12), placebo/d6-DM/Q, Poor metabolizer subgroup

[2H]C([2H])([2H])Oc1ccc2c(c1)C13CCCCC1C(C2)NCC3 (centres unmarked) [d3-3-MM]
mean plasma concentration, all patients [1, 4]: 20.5 ng/mL | mean plasma concentration, all patients [1, 5]: 19.4 ng/mL | mean plasma concentration, all patients [1, 6]: 23.4 ng/mL

COc1ccc2c(c1)[C@@]13CCCC[C@H]1[C@@H](C2)N(C)CC3 [dextromethorphan, (+)-3-methoxy-N-methylmorphinan]
PANSS and SANS scores, risperidone and dextromethorphan vs. risperidone and placebo (in words) ([2]; add-on to risperidone): No significant differences | PANSS scores including PANSS negative symptom subscale, dextromethorphan vs. placebo (in words) [2, 7]: No significant difference | total SANS scores, dextromethorphan vs. placebo (in words) [2, 7]: significant difference

[2H]C([2H])([2H])N1CCC23CCCCC2C1Cc1ccc(O)cc13 (centres unmarked) [d3-DX, deuterated (d3)-dextrorphan]
mean plasma concentration, all patients [1, 4]: 101.2 ng/mL | mean plasma concentration, all patients [1, 5]: 111.6 ng/mL | mean plasma concentration, all patients [1, 6]: 124.5 ng/mL | AUC, mean (SD) [3, 8]: 1142.3 (378.08) h × ng/mL | AUC, median (min, max) [3, 8]: 1083.8 (506, 2091) h × ng/mL | Cmax, mean (SD) [3, 8]: 127.4 (50.25) ng/mL | Cmax, median (min, max) [3, 8]: 121.6 (56, 332) ng/mL | AUC, mean (SD) [3, 9]: 1235.3 (389.01) h × ng/mL | AUC, median (min, max) [3, 9]: 1119.6 (729, 2091) h × ng/mL | Cmax, mean (SD) [3, 9]: 144.6 (56.42) ng/mL | Cmax, median (min, max) [3, 9]: 134.9 (72, 332) ng/mL | AUC, mean (SD) [3, 10]: 1044.8 (340.96) h × ng/mL | AUC, median (min, max) [3, 10]: 991.6 (506, 1847) h × ng/mL | Cmax, mean (SD) [3, 10]: 111.5 (38.83) ng/mL | Cmax, median (min, max) [3, 10]: 101.2 (56, 195) ng/mL | AUC, mean (SD) [3, 11]: 887.2 (na) h × ng/mL | AUC, median (min, max) [3, 11]: 887.2 (887, 887) h × ng/mL | Cmax, mean (SD) [3, 11]: 87.2 (na) ng/mL | Cmax, median (min, max) [3, 11]: 87.2 (87, 87) ng/mL | AUC, mean (SD) [3, 12]: 1774.7 (na) h × ng/mL | AUC, median (min, max) [3, 12]: 1774.7 (1775, 1775) h × ng/mL | Cmax, mean (SD) [3, 12]: 193.1 (na) ng/mL | Cmax, median (min, max) [3, 12]: 193.1 (193, 193) ng/mL | AUC, mean (SD) [3, 13]: 1142.8 (378.46) h × ng/mL | AUC, median (min, max) [3, 13]: 1087.1 (511, 2115) h × ng/mL | Cmax, mean (SD) [3, 13]: 126.8 (50.32) ng/mL | Cmax, median (min, max) [3, 13]: 123.0 (57, 337) ng/mL | AUC, mean (SD) [3, 14]: 1243.6 (394.70) h × ng/mL | AUC, median (min, max) [3, 14]: 1123.4 (740, 2115) h × ng/mL | Cmax, mean (SD) [3, 14]: 144.9 (56.98) ng/mL | Cmax, median (min, max) [3, 14]: 133.9 (76, 337) ng/mL | AUC, mean (SD) [3, 15]: 1015.0 (312.22) h × ng/mL | AUC, median (min, max) [3, 15]: 1000.2 (511, 1833) h × ng/mL | Cmax, mean (SD) [3, 15]: 106.3 (33.76) ng/mL | Cmax, median (min, max) [3, 15]: 100.6 (57, 187) ng/mL | AUC, mean (SD) [3, 16]: 1783.3 (na) h × ng/mL | AUC, median (min, max) [3, 16]: 1783.3 (1783, 1783) h × ng/mL | Cmax, mean (SD) [3, 16]: 190.3 (na) ng/mL | Cmax, median (min, max) [3, 16]: 190.3 (190, 190) ng/mL | AUC, mean (SD) [3, 17]: 1181.4 (515.68) h × ng/mL | AUC, median (min, max) [3, 17]: 1085.8 (651, 3622) h × ng/mL | Cmax, mean (SD) [3, 17]: 126.6 (49.10) ng/mL | Cmax, median (min, max) [3, 17]: 116.4 (65, 318) ng/mL | AUC, mean (SD) [3, 18]: 1323.8 (623.07) h × ng/mL | AUC, median (min, max) [3, 18]: 1131.7 (750, 3622) h × ng/mL | Cmax, mean (SD) [3, 18]: 142.5 (56.08) ng/mL | Cmax, median (min, max) [3, 18]: 130.9 (80, 318) ng/mL | AUC, mean (SD) [3, 19]: 1014.1 (202.39) h × ng/mL | AUC, median (min, max) [3, 19]: 940.4 (745, 1367) h × ng/mL | Cmax, mean (SD) [3, 19]: 108.0 (24.89) ng/mL | Cmax, median (min, max) [3, 19]: 105.2 (76, 168) ng/mL | AUC, mean (SD) [3, 20]: 651.2 (na) h × ng/mL | AUC, median (min, max) [3, 20]: 651.2 (651, 651) h × ng/mL | Cmax, mean (SD) [3, 20]: 65.1 (na) ng/mL | Cmax, median (min, max) [3, 20]: 65.1 (65, 65) ng/mL

[2H]C([2H])([2H])Oc1ccc2c(c1)[C@]13CCCC[C@@H]1[C@H](C2)N(C([2H])([2H])[2H])CC3 [d6-DM, deuterated [d6]-dextromethorphan hydrobromide]
mean plasma concentration, all patients [1, 4]: 49.7 ng/mL | mean plasma concentration, all patients [1, 5]: 53.2 ng/mL | mean plasma concentration, all patients [1, 6]: 54.0 ng/mL | AUC, mean (SD) [3, 8]: 456.2 (362.05) h × ng/mL | AUC, median (min, max) [3, 8]: 355.4 (73, 1793) h × ng/mL | Cmax, mean (SD) [3, 8]: 51.6 (38.53) ng/mL | Cmax, median (min, max) [3, 8]: 40.0 (8, 192) ng/mL | AUC, mean (SD) [3, 9]: 333.3 (255.24) h × ng/mL | AUC, median (min, max) [3, 9]: 271.9 (73, 1183) h × ng/mL | Cmax, mean (SD) [3, 9]: 38.2 (27.99) ng/mL | Cmax, median (min, max) [3, 9]: 32.2 (8, 130) ng/mL | AUC, mean (SD) [3, 10]: 573.2 (418.66) h × ng/mL | AUC, median (min, max) [3, 10]: 401.7 (139, 1793) h × ng/mL | Cmax, mean (SD) [3, 10]: 63.9 (44.15) ng/mL | Cmax, median (min, max) [3, 10]: 48.1 (17, 192) ng/mL | AUC, mean (SD) [3, 11]: 204.6 (na) h × ng/mL | AUC, median (min, max) [3, 11]: 204.6 (205, 205) h × ng/mL | Cmax, mean (SD) [3, 11]: 28.7 (na) ng/mL | Cmax, median (min, max) [3, 11]: 28.7 (29, 29) ng/mL | AUC, mean (SD) [3, 12]: 468.0 (na) h × ng/mL | AUC, median (min, max) [3, 12]: 468.0 (468, 468) h × ng/mL | Cmax, mean (SD) [3, 12]: 58.6 (na) ng/mL | Cmax, median (min, max) [3, 12]: 58.6 (59, 59) ng/mL | AUC, mean (SD) [3, 13]: 473.4 (375.01) h × ng/mL | AUC, median (min, max) [3, 13]: 369.4 (70, 1810) h × ng/mL | Cmax, mean (SD) [3, 13]: 53.4 (40.09) ng/mL | Cmax, median (min, max) [3, 13]: 42.3 (8, 194) ng/mL | AUC, mean (SD) [3, 14]: 336.7 (244.01) h × ng/mL | AUC, median (min, max) [3, 14]: 288.9 (70, 1127) h × ng/mL | Cmax, mean (SD) [3, 14]: 38.7 (26.74) ng/mL | Cmax, median (min, max) [3, 14]: 34.1 (8, 124) ng/mL | AUC, mean (SD) [3, 15]: 601.9 (442.90) h × ng/mL | AUC, median (min, max) [3, 15]: 375.7 (132, 1810) h × ng/mL | Cmax, mean (SD) [3, 15]: 67.0 (46.98) ng/mL | Cmax, median (min, max) [3, 15]: 45.9 (16, 194) ng/mL | AUC, mean (SD) [3, 16]: 498.8 (na) h × ng/mL | AUC, median (min, max) [3, 16]: 498.8 (499, 499) h × ng/mL | Cmax, mean (SD) [3, 16]: 62.1 (na) ng/mL | Cmax, median (min, max) [3, 16]: 62.1 (62, 62) ng/mL | AUC, mean (SD) [3, 17]: 439.6 (248.41) h × ng/mL | AUC, median (min, max) [3, 17]: 413.0 (53, 1081) h × ng/mL | Cmax, mean (SD) [3, 17]: 50.8 (27.44) ng/mL | Cmax, median (min, max) [3, 17]: 47.7 (7, 121) ng/mL | AUC, mean (SD) [3, 18]: 404.3 (239.02) h × ng/mL | AUC, median (min, max) [3, 18]: 368.0 (53, 1081) h × ng/mL | Cmax, mean (SD) [3, 18]: 47.2 (26.57) ng/mL | Cmax, median (min, max) [3, 18]: 44.2 (7, 121) ng/mL | AUC, mean (SD) [3, 19]: 492.1 (271.83) h × ng/mL | AUC, median (min, max) [3, 19]: 492.9 (124, 945) h × ng/mL | Cmax, mean (SD) [3, 19]: 56.2 (29.94) ng/mL | Cmax, median (min, max) [3, 19]: 56.1 (15, 106) ng/mL | AUC, mean (SD) [3, 20]: 427.4 (na) h × ng/mL | AUC, median (min, max) [3, 20]: 427.4 (427, 427) h × ng/mL | Cmax, mean (SD) [3, 20]: 47.9 (na) ng/mL | Cmax, median (min, max) [3, 20]: 47.9 (48, 48) ng/mL
